Data reported in patent publication US5814627A, “3, 5-disubstituted and 3, 4, 5-trisubstituted 2-isoxazolines and isoxazoles, process for their preparation and their use as pharmaceuticals” (Hoechst Aktienegesellschaft, priority 1994, dated 1998).
Where a name gives a salt, the structure may show the parent alone.

How the values were obtained:
[1] = system: tumor cell line 20-10-5S (hybridoma cell line); experiment: Test 8: Inhibition of tumor cell proliferation; assay type: cell-based; conditions: 48 h + 16 h tritiated thymidine incorporation; 20-10-5S cells
adjuvant/arthritis model = experiment: Test 6: antiarthritic effect in the adjuvant/arthritis model; assay type: in vivo, rat (Wistar-Lewis); conditions: Rattus norvegicus, po, 408 h, daily for 17 days, rat, read-out: Test 6 Paw volume (% inhibition); for inhibition in vivo at 50 mg/kg: 50 mg/kg orally; for inhibition in vivo at 20 mg/kg: 20 mg/kg orally
[2] = system: cyclooxygenase-dependent thrombocyte aggregation; experiment: Test 5: Cyclooxygenase-dependent thrombocyte aggregation; assay type: cell-based, human; conditions: arachidonic acid as inducer
Procedure: TEST 5. Cyclooxygenase-dependent thrombocyte aggregation
Platelet-rich plasma (PRP): to inhibit coagulation, human blood was treated with 1/10 of its volume of 3.8% sodium citrate solution. Centrifugation then takes place at 105×g for 20 minutes and the supernatant (PRP) is removed. 200 μl of PRP were preincubated, at 37° C. for 10 minutes, together with 30 μl of test substance in a PAP4 aggregometer (BioData). The test substance was dissolved in organic solvent and diluted 1:30 with buffer (50 mM TisHCl, pH 8.0; 90 mM NaCl). Aggregation is triggered with 20 μl of inducer. During the aggregation, stirring takes place at 800 rpm. Arachidonic acid, 5 mg/ml, was used as the inducer.
The values in the table show the concentration of the test substance which was employed in μM and, besides this, the residual activity measured in percent based on the control, which was set to be 100%. The interleukin is additionally indicated in test 4.

[3] = system: polymorphonuclear leucocytes (PMNL); experiment: Test 1: Release of proteolytic activity from human PMNL; assay type: cell-based; conditions: Homo sapiens, PMNL, read-out: Test 1 residual activity (release of proteolytic activity), percent of control
Procedure: Isolation of polymorphonuclear leucocytes (PMNL) from human peripheral blood for carrying out tests 1 and 2 10 ml of human blood were diluted with 10 ml of HBSS (Serva) and underlaid with 15 ml of Lymphoprep (Dr. Molter GmbH, Heidelberg). […] A white ring, composed of mononuclear cells, is located between these two phases. The lowermost phase is composed of erythrocytes which are covered with a white layer of PMNL. The uppermost phase, and also the Lymphoprep and the white ring, were carefully removed using a syringe. The remaining sediment was carefully resuspended in 15 ml of 3% dextran in PM16 (mw: 485,000, Sigma, Deisenhofen). The suspension was then left to stand at room temperature for one hour. During this time, the erythrocytes sedimented while the PMNL remained in the supernatant. The supernatant was removed, diluted with an approximately equal volume of PM16, and centrifuged for 15 minutes at 400×g. Should the PMNL sediment be heavily contaminated with erythrocytes, it is necessary to carry out a hypotonic lysis. To do this, the sediment was resuspended in 750 μl of water. After exactly 15 seconds, the suspension was diluted with approximately 7 ml of PM16 and centrifuged for 10 minutes at 400×g. If necessary, this lysis was repeated once more. Otherwise, the PMNL sediment was resuspended in a suitable medium. 250 μl of PMNL (5·10^6 cells/ml of PBS containing 7.5 mM glucose) were incubated at 37° C. for 20 minutes with 1 μl of test substance. 1 μl of cytochalasin B (5 μg/ml of test mixture) was then added and the mixture was incubated at 37° C. for a further 5 minutes. Following the addition of 1 μl of […] necrosis factor alpha (TNF; 30 ng/ml of test mixture), the incubation was continued for 5 minutes. The release was started using 1 μl of fMLP (10 nmol/l of test mixture). After 60 minutes at 37° C., the reaction was terminated by cooling the samples down to 0° C. The samples were then centrifuged, and the supernatant was removed and frozen down. Cytochalasin B and fMLP were dissolved in DMSO and TNF was diluted with buffer. 50 μl of the supernatant were mixed with 175 μl of buffer (100 mM HEPES, pH 7.5; 500 mM NaCl) in a 96-well microtiter plate. Following the addition of 25 μl of substrate (methoxysuccinyl-[…]-nitroanilide), the extinction of each well was measured at 405 nm after 0, 5, 10, 15, 30 and 60 minutes. […] The interleukin is additionally indicated in test 4.

[4] = Homo sapiens, 100 μM, read-out: Test 5 residual activity (cyclooxygenase-dependent thrombocyte aggregation), percent of control
[5] = Homo sapiens, read-out: Test 5 residual activity (cyclooxygenase-dependent thrombocyte aggregation), percent of control

Compound | IC50 [1] [µM] | activity at 100 µM [2, 4] [%] | also measured
CC(C)(C)c1cc(C2=NO[C@H]([C@H]3CO3)C2)cc(C(C)(C)C)c1O (relative stereo) [Example 16] | 30 | – | –
CC(=O)O[C@@H](C)[C@@H]1CC(c2cc(C(C)(C)C)c(O)c(C(C)(C)C)c2)=NO1 (relative stereo) [Example 22, 1-(3-(4-Hydroxy-3,5-di-tert-butylphenyl)-2-isoxazolin-5-yl)ethyl acetate] | – | – | inhibition in vivo at 50 mg/kg (adjuvant/arthritis model): 74%
CC(=O)CC(=O)O[C@H](C)[C@@H]1CC(c2cc(C(C)(C)C)c(O)c(C(C)(C)C)c2)=NO1 (relative stereo) [Example 84, 1-(3-(4-Hydroxy-3,5-di-tert-butylphenyl)-2-isoxazolin-5-yl)ethyl 3-oxobutyrate] | – | – | inhibition in vivo at 25 mg/kg (adjuvant/arthritis model; 25 mg/kg orally): 49%
C[C@@H](OP(=O)(Oc1ccccc1)Oc1ccccc1)[C@@H]1CC(c2cc(C(C)(C)C)c(O)c(C(C)(C)C)c2)=NO1 (relative stereo) [Example 85, Diphenyl 1-(3-(4-hydroxy-3,5-di-tert-butylphenyl)-2-isoxazolin-5-yl)ethyl phosphate] | < 5 | – | Test 5 residual activity (cyclooxygenase-dependent thrombocyte aggregation), percent of control ([2]; 100 μM): 94%
C[C@@H](OC(=O)c1ccc(CN2CCOCC2)cc1)[C@@H]1CC(c2cc(C(C)(C)C)c(O)c(C(C)(C)C)c2)=NO1 (relative stereo) [Example 86, 1-(3-(4-Hydroxy-3,5-di-tert-butylphenyl)-2-isoxazolin-5-yl)ethyl 4-(4-morpholino)methylbenzoate hydrochloride] | < 5 | – | inhibition in vivo at 20 mg/kg (adjuvant/arthritis model): 70%
C[C@H](OC(=O)c1ccc(CN2CCOCC2)cc1)[C@@H]1CC(c2cc(C(C)(C)C)c(O)c(C(C)(C)C)c2)=NO1 (relative stereo) [Example 87, 1-(3-(4-Hydroxy-3,5-di-tert-butylphenyl)-2-isoxazolin-5-yl)ethyl 4-(4-morpholino)methylbenzoate hydrochloride] | < 5 | – | inhibition in vivo at 20 mg/kg (adjuvant/arthritis model): 50%
CCC(C)(O)c1cc(-c2cc(C(C)(C)C)c(O)c(C(C)(C)C)c2)no1 (centres unmarked) [Example 31] | – | 100 | –
CC(C)(C)c1cc(-c2noc(CO)c2CO)cc(C(C)(C)C)c1O [Example 32] | – | – | activity at 1 µM ([3]; 1 μM): 84%; activity at 10 µM ([3]; 10 μM): 72%; activity at 100 µM ([3]; 100 μM): 34%
CC(C)(C)c1cc(-c2cc(C(C)(C)OCC(=O)O)on2)cc(C(C)(C)C)c1O [Example 34, (1-(3-(4-Hydroxy-3,5-di-tert-butylphenyl)isoxazol-5-yl)-1-methylethoxy)acetic acid] | – | 98 | –
CCOP(=O)(/C=C/c1cc(-c2cc(C(C)(C)C)c(O)c(C(C)(C)C)c2)no1)OCC [Example 57, Diethyl 2-(3-(4-hydroxy-3,5-di-tert-butylphenyl)isoxazol-5-yl)vinylphosphonate] | < 5 | 99 | –
CC(C)(C)c1cc(-c2cc(/C=C/P(=O)(O)O)on2)cc(C(C)(C)C)c1O [Example 58, 2-(3-(4-Hydroxy-3,5-di-tert-butylphenyl)isoxazol-5-yl)vinylphosphonic acid] | – | 99 | –
C=CCC(O)CC1CC(c2cc(C(C)(C)C)c(O)c(C(C)(C)C)c2)=NO1 (centres unmarked) [Example 79] | 5 to 10 | 96 | –
C=CCC(O)CC1CC(c2cc(C(C)(C)C)c(O)c(C(C)(C)C)c2)=NO1 (centres unmarked) [Example 80] | 5 to 10 | – | activity at 50 µM [2, 5]: 97%
CC(=O)O[C@@H](C(=O)O)[C@@H](OC(C)=O)C(=O)NCc1cc(-c2cc(C(C)(C)C)c(O)c(C(C)(C)C)c2)no1 [Example 82, Di-O-acetyl-L-tartaric acid-N-(3-(4-hydroxy-3,5-di-tert-butylphenyl)isoxazol-5-yl)methylamide] | – | 93 | –
CC(C)(C)c1cc(-c2cc(CNC(=O)[C@H](O)[C@@H](O)C(=O)O)on2)cc(C(C)(C)C)c1O [Example 83] | – | – | inhibition in vivo at 50 mg/kg (adjuvant/arthritis model): 39%

More lines, main results first:

IC50 [1] [µM] | Compound | activity at 100 µM [2, 4] [%] | also measured
10 | CC(OC(=O)[C@@H](N)Cc1ccc(O)cc1)C1CC(c2cc(C(C)(C)C)c(O)c(C(C)(C)C)c2)=NO1 (mixture of isomers) [Example 88, L-Tyrosyl 1-(3-(3,5-di-tert-butyl-4-hydroxyphenyl)-2-isoxazolin-5-yl)ethyl ester, rac. 5,5'-erythro isomer mixture] | – | –
8 to 15 | CC(C)(C)c1cc(C2=NO[C@H]([C@@H]3CO3)C2)cc(C(C)(C)C)c1O (relative stereo) [Example 17] | – | –
10 | CC(C)(OCC1CC(c2cc(C(C)(C)C)c(O)c(C(C)(C)C)c2)=NO1)C(=O)O (centres unmarked) [Example 3, 2-(3-(4-Hydroxy-3,5-di-tert-butylphenyl)-2-isoxazolin-5-ylmethoxy)methylpropionic acid] | 98 | –
30 | CC(C)(C)c1cc(C2=NOC(COC(=O)NCC(=O)O)C2)cc(C(C)(C)C)c1O (centres unmarked) [Example 4, N-(3-(4-Hydroxy-3,5-di-tert-butylphenyl)-2-isoxazolin-5-ylmethoxycarbonyl)glycine] | – | –
< 5 | CC(C)(C)c1cc(C2=NOC(C(N)=O)C2)cc(C(C)(C)C)c1O (centres unmarked) [Example 11] | – | –
< 5 | CC(C)(C)c1cc(-c2cc(C(C)(C)O)on2)cc(C(C)(C)C)c1O [Example 29] | – | –
< 5 | CCOC(=O)COC(C)(C)c1cc(-c2cc(C(C)(C)C)c(O)c(C(C)(C)C)c2)no1 [Example 33, Ethyl (1-(3-(4-hydroxy-3,5-di-tert-butylphenyl)isoxazol-5-yl)-1-methylethoxy)acetate] | – | –
< 5 | CN(O)C(=O)C(C)(C)OCc1cc(-c2cc(C(C)(C)C)c(O)c(C(C)(C)C)c2)no1 [Example 37, N-Methylhydroxamoyl-2-((3-(4-hydroxy-3,5-di-tert-butylphenyl)isoxazol-5-ylmethoxy)-2-methyl propionate] | – | –
30 | CCOC(=O)CNC(=O)OCc1cc(-c2cc(C(C)(C)C)c(O)c(C(C)(C)C)c2)no1 [Example 39, N-(3-(4-Hydroxy-3,5-di-tert-butylphenyl)isoxazol-5-ylmethoxycarbonyl)glycine ethyl ester] | 98 | –
5 to 10 | CC(C)(C)c1cc(-c2cc(CCCOC(=O)NCC(=O)O)on2)cc(C(C)(C)C)c1O [Example 42, N-(3-(4-Hydroxy-3,5-di-tert-butylphenyl)isoxazol-5-ylpropoxycarbonyl)glycine] | – | –
5 to 10 | COC(=O)CCc1cc(-c2cc(C(C)(C)C)c(O)c(C(C)(C)C)c2)no1 [Example 44] | – | activity at 10 µM ([2]; Homo sapiens, 10 μM, read-out: Test 5 residual activity (cyclooxygenase-dependent thrombocyte aggregation), percent of control): 99%
5 to 10 | CC(C)(C)c1cc(-c2cc(CCC(=O)O)on2)cc(C(C)(C)C)c1O [Example 45, 3-(4-Hydroxy-3,5-di-tert-butylphenyl)isoxazol-5-ylpropionic acid] | 98 | –
5 to 10 | CC(O)CC(O)CC1CC(c2cc(C(C)(C)C)c(O)c(C(C)(C)C)c2)=NO1 (centres unmarked) [Example 78] | – | activity at 50 µM [2, 5]: 94%
